The values below come from paper PMC8869358, “High-Throughput Chemical Screening and Structure-Based Models to Predict hERG Inhibition” (Biology, 2022).

Where a name gives a salt, the structure may show the parent alone.

Chain of hERG (Q12809 whole entry): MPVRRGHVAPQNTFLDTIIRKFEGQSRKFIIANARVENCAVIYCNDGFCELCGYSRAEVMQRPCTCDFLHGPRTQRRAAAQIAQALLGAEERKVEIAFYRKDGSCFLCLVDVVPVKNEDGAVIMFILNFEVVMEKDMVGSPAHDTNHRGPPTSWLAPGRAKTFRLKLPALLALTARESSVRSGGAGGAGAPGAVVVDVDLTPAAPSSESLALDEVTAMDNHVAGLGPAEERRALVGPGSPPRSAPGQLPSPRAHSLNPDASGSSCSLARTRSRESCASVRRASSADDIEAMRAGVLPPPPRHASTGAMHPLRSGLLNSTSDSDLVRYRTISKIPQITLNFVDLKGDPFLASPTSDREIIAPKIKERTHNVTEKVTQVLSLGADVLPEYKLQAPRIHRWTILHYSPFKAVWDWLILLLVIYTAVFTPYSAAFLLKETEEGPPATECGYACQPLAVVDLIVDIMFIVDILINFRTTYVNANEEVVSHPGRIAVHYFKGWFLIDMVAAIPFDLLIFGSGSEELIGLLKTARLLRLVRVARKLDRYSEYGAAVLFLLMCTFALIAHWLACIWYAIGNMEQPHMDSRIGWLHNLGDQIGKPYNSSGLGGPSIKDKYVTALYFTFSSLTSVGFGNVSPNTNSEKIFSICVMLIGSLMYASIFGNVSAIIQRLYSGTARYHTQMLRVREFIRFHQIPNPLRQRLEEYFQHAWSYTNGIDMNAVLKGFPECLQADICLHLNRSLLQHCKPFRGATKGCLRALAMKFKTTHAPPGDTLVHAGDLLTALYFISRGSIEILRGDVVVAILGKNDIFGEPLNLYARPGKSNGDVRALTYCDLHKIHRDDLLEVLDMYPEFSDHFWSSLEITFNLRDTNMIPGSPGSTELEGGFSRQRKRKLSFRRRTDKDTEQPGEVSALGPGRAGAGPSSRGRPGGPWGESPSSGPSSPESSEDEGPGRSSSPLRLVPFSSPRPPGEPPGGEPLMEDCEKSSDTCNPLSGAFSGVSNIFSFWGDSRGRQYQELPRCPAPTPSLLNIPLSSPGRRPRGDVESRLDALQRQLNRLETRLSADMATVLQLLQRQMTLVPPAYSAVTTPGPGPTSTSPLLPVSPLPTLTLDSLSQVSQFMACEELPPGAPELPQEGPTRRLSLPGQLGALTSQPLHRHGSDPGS

The test has as its target hERG (Homo sapiens, UniProt Q12809). Nature of the test: cell-based. The conditions noted are these: (-LOG10(IC50), µM).
In general, IC50 refers to the concentration needed to halve the response being measured. For the molecule `CCC(OC(C)=O)C(C[C@H](C)NC)(c1ccccc1)c1ccccc1` (mixture of isomers) [L-Î±lpha-Noracetylmethadol hydrochloride], it took 7.53 µM to reach half-maximal inhibition (IC50).

In the case of `COC(=O)C(C)Oc1ccc(Oc2ccc(Cl)cc2Cl)cc1` (racemic) [(+-)-Diclofop-methyl], the IC50 is 46.2 µM.

Molecule `COC(=O)C1=C(C)NC(C)=C(C(=O)OCCCN2CCC(c3ccccc3)(c3ccccc3)CC2)C1c1cccc([N+](=O)[O-])c1` (racemic) [(+/-) -Niguldipine hydrochloride (1:x)] showed an IC50 of 1.25 µM.

For the molecule `CC(CCc1ccc(O)cc1)NCCc1ccc(O)c(O)c1` (racemic) [DL-Dobutamine], the IC50 is 16.9 µM.

In turn, `COC(=O)C1=C(C)NC(C)=C(C(=O)O[C@@H]2CCCN(Cc3ccccc3)C2)[C@@H]1c1cccc([N+](=O)[O-])c1` (racemic) [rac Benidipine hydrochloride] had an IC50 of 12.5 µM.

With `O[C@@H](CNC[C@H](O)[C@H]1CCc2cc(F)ccc2O1)[C@@H]1CCc2cc(F)ccc2O1` (racemic) [rac Nebivolol hydrochloride], it took 2.49 µM to reach half-maximal inhibition (IC50).

`N#CC1(N=NC2(C#N)CCCCC2)CCCCC1` [1,1'-Diazene-1,2-diyldicyclohexanecarbonitrile] displayed an IC50 of 43.6 µM.

Take `O=[N+]([O-])c1ccc(Oc2ccc([N+](=O)[O-])cc2)cc1` [1,1'-Oxybis(4-nitrobenzene)]: inhibition was half-maximal at 32.8 µM (IC50).

In turn, `C=C(C)C(=O)OCC(CC)(COC(=O)C(=C)C)COC(=O)C(=C)C` [1,1,1-Trimethylolpropane trimethacrylate] had an IC50 of 30.2 µM.

With `Cc1c([N+](=O)[O-])cc2c(c1[N+](=O)[O-])C(C)(C)CC2(C)C` [1,1,3,3,5-Pentamethyl-4,6-dinitro-2,3-dihydro-1H-indene], 16.7 µM corresponded to half-maximal inhibition (IC50). Compared with the last molecule, the IC50 is about 1.8-fold lower.

`BrC1CCC(Br)C(Br)CCC(Br)C(Br)CCC1Br` (stereo not drawn) [1,2,5,6,9,10-Hexabromocyclododecane] showed an IC50 of 19.2 µM.

`N#CCCC(Br)(C#N)CBr` (stereo not drawn) [1,2-Dibromo-2,4-dicyanobutane]: the IC50 is 36.7 µM.

Regarding `BrCC(Br)C1CCC(Br)C(Br)C1` (stereo not drawn) [1,2-Dibromo-4-(1,2-dibromoethyl)cyclohexane], the IC50 is 34.5 µM.

In turn, `Clc1cc(Cl)c2c(c1)N=C1CCCCCN1C2` [1,3-Dichloro-6,7,8,9,10,12-hexahydroazepino[2,1-b]quinazoline hydrochloride (1:1)] had an IC50 of 12.5 µM. This IC50 lies about 2.8-fold lower than the previous one.

The molecule `CCCCCCCCCCn1cc[n+](CCCCCCCCCC)c1C` [1,3-Didecyl-2-methylimidazolium chloride] showed an IC50 of 0.51 µM.

On to `Nc1ccc(C(=O)OCCCOC(=O)c2ccc(N)cc2)cc1` [1,3-Propanediol, bis(4-aminobenzoate)], for which half-maximal inhibition (IC50) was put at 12.3 µM.

On to `ClC(Cl)(Cl)c1ccc(C(Cl)(Cl)Cl)cc1` [1,4-Bis(trichloromethyl)benzene], for which the half-inhibitory concentration (IC50) is 14.2 µM.

For `Clc1cnc(Oc2ccc(Oc3ncc(Cl)cc3Cl)cc2)c(Cl)c1` [1,4-Bis[2-(3,5-dichloropyridyloxy)]benzene], 17.4 µM corresponded to half-maximal inhibition (IC50).

Turning to `O=C1C=CC(=O)c2ccccc21` [1,4-Naphthoquinone], half-maximal inhibition (IC50) was put at 21 µM. The IC50 values of the last two molecules are within 1.5-fold of each other.

As to `O=C1Cc2ccccc2N1c1c(Cl)cccc1Cl` [1-(2,6-Dichlorophenyl)-2-indolinone], the half-inhibitory concentration (IC50) was 21.9 µM.

Turning to `Clc1ccc(C(c2ccccc2Cl)C(Cl)Cl)cc1` (stereo not drawn) [1-(2-Chlorophenyl)-1-(4-chlorophenyl)-2,2-dichloroethane], it took 21.9 µM to reach half-maximal inhibition (IC50).

`CC(=O)OC1(c2ccccc2)CCN(CCc2ccccc2)CC1` [1-(2-Phenylethyl)-4-phenyl-4-acetoxypiperidine] gave an IC50 of 22.4 µM.

As for `ClCCCN1CCN(c2cccc(Cl)c2)CC1` [1-(3-Chlorophenyl)-4-(3-chloropropyl)piperazine hydrochloride], the IC50 was 10.1 µM.

Regarding `CC(C)(C)C(=O)C=Cc1ccc(Cl)cc1` [1-(4-Chlorophenyl)-4,4-dimethylpent-1-en-3-one], the concentration for half-maximal inhibition (IC50) stood at 43.6 µM. This IC50 lies about 4.3-fold higher than the previous one.

In turn, `COc1ccc(C(=O)CC(=O)c2ccc(C(C)(C)C)cc2)cc1` [1-(4-tert-Butylphenyl)-3-(4-methoxyphenyl)propane-1,3-dione] gave an IC50 of 21.3 µM.

In turn, `Fc1ccc(C(c2ccc(F)cc2)N2CCNCC2)cc1` [1-(Bis(4-fluorophenyl)methyl)piperazine] had an IC50 of 19.7 µM.

As for `CCCC[n+]1ccc(C)cc1` [1-Butyl-4-methylpyridinium chloride], the IC50 was found to be 43.4 µM. Against the preceding molecule, the IC50 is about 2.2-fold higher.

Consider `CCCCCCCCCCn1cc[n+](C)c1` [1-Decyl-3-methylimidazolium bromide], for which half-maximal inhibition (IC50) required 15 µM.

Regarding `CCCCCCCCCCn1cc[n+](C)c1` [1-Decyl-3-methylimidazolium chloride], 16.7 µM corresponded to half-maximal inhibition (IC50).

In turn, `CCCCCCCCCCn1cc[n+](C)c1` [1-Decyl-3-methylimidazolium hexafluorophosphate] gave an IC50 of 8.37 µM.

Consider `CCCCCCCCCCn1cc[n+](C)c1` [1-Decyl-3-methylimidazolium trifluoromethanesulfonate], for which the IC50 is 13.6 µM.

`CCCCCCCCCCCCn1cc[n+](C)c1` [1-Dodecyl-3-methylimidazolium chloride] gave an IC50 of 2.87 µM.

As for `CCCCCCCCCCCCn1cc[n+](C)c1` [1-Dodecyl-3-methylimidazolium hexafluorophosphate], the IC50 was 4.2 µM.

In the case of `CCCCCCCCCCCCn1cc[n+](C)c1` [1-Dodecyl-3-methylimidazolium iodide], the IC50 is 10.6 µM.

`CCCCCCCCCCCCn1cc[n+](C)c1` [1-Dodecyl-3-methylimidazolium tetrafluoroborate] showed an IC50 of 4.04 µM.

Take `CCCCCCCCCCCCn1cc[n+](C)c1` [1-Dodecyl-3-methylimidazolium trifluoromethanesulfonate]: the IC50 was 4.61 µM.

`CC[N+]1(C)CCCC1` [1-Ethyl-1-methylpyrrolidinium iodide] gave an IC50 of 19.5 µM.

With `CCCCCCCCCCCCCCCCn1cc[n+](C)c1` [1-Hexadecyl-3-methylimidazolium chloride], half-maximal inhibition (IC50) required 14.1 µM.

In the case of `CCCCCCCCCCCCCCCCn1cc[n+](C)c1` [1-Hexadecyl-3-methylimidazolium tetrafluoroborate], the IC50 is 9.86 µM.

The molecule `CCCCCC[n+]1ccn(C)c1.O=S(=O)([N-]S(=O)(=O)C(F)(F)F)C(F)(F)F` [1-Hexyl-3-methylimidazolium bis(trifluoromethylsulfonyl)imide] showed an IC50 of 45.4 µM.

Molecule `CCCCCCn1cc[n+](C)c1` [1-Hexyl-3-methylimidazolium tetrafluoroborate] gave an IC50 of 60.6 µM.

As for `CCCCCCCCCCCCCCCCCC[n+]1ccn(C)c1` [1-Methyl-3-octadecylimidazolium hexafluorophosphate], it took 4.02 µM to reach half-maximal inhibition (IC50). This IC50 is about 15-fold lower than that of the molecule before.

In turn, `CCCCCCCC[n+]1ccn(C)c1` [1-Methyl-3-octylimidazolium chloride] gave an IC50 of 19.4 µM.

Molecule `CCCCCCCC[n+]1ccn(C)c1` [1-Methyl-3-octylimidazolium hexafluorophosphate] showed an IC50 of 17.6 µM.

Molecule `CCCCCCCC[n+]1ccn(C)c1` [1-Methyl-3-octylimidazolium trifluoromethanesulfonate] gave an IC50 of 21.2 µM. This IC50 and that of the molecule before are within 1.5-fold of each other.

`Cc1cccc(Oc2ccccc2)c1` [1-Methyl-3-phenoxybenzene] had an IC50 of 23.9 µM.

As to `CCCCCCCCCCCCCCn1cc[n+](C)c1` [1-Methyl-3-tetradecylimidazolium chloride], the IC50 is 8.62 µM.

Turning to `CCCCCCOc1cc(C)c(O)c(C)c1C` [1-O-Hexyl-2,3,5-trimethylhydroquinone], inhibition was half-maximal at 31.3 µM (IC50).

With `O=C1C=CC(=O)N1c1ccccc1` [1-Phenyl-1H-pyrrole-2,5-dione], the IC50 is 50.9 µM.

`CCCCCCCCCCCCCCN(CCO)CCO` [2,2'-(Tetradecylimino)diethanol] showed an IC50 of 16.1 µM. This IC50 lies about 3.2-fold lower than the previous one.

With `Clc1ccccc1-c1ccccc1Cl` [2,2'-Dichlorobiphenyl], the midpoint of inhibition, the IC50, lay at 17.6 µM.

Molecule `Cc1cc(Cc2cc(C)cc(C(C)(C)C)c2O)c(O)c(C(C)(C)C)c1` [2,2'-Methylenebis(4-methyl-6-tert-butylphenol)] gave an IC50 of 31.1 µM.

With `CCc1cc(Cc2cc(CC)cc(C(C)(C)C)c2O)c(O)c(C(C)(C)C)c1` [2,2'-Methylenebis(ethyl-6-tert-butylphenol)], the midpoint of inhibition, the IC50, lay at 17.4 µM. Compared with the last molecule, the IC50 is about 1.8-fold lower.

`CC(C)C(OC(=O)c1ccccc1)C(C)(C)COC(=O)c1ccccc1` (stereo not drawn) [2,2,4-Trimethylpentane-1,3-diyl dibenzoate]: the IC50 was 21.9 µM.

`OCC(c1ccc(Cl)cc1)c1ccc(Cl)cc1` [2,2-Bis(4-chlorophenyl)ethanol] showed an IC50 of 49 µM.

With `Oc1ccc(C(c2ccc(O)cc2)C(Cl)(Cl)Cl)cc1` [2,2-Bis(4-hydroxyphenyl)-1,1,1-trichloroethane], the IC50 is 54.9 µM.

`CCC(COC(=O)CCS)(COC(=O)CCS)COC(=O)CCS` [2,2-Bis{[(3-sulfanylpropanoyl)oxy]methyl}butyl 3-sulfanylpropanoate] gave an IC50 of 38.9 µM.

`O=C(c1ccccc1)C(Cl)Cl` [2,2-Dichloro-1-phenylethanone] showed an IC50 of 36 µM.

`Clc1nc(C(Cl)(Cl)Cl)c(Cl)c(Cl)c1Cl` [2,3,4,5-Tetrachloro-6-(trichloromethyl)pyridine] had an IC50 of 49 µM.

The molecule `CCCCOCCOC(=O)COc1cc(Cl)c(Cl)cc1Cl` [2,4,5-T-butotyl] had an IC50 of 23.2 µM.

Take `CC(C)(C)c1cc(C(C)(C)C)c(O)c(C(C)(C)C)c1` [2,4,6-Tris(tert-butyl)phenol]: inhibition was half-maximal at 17.4 µM (IC50).

For `CC(C)(c1ccccc1)c1ccc(O)c(C(C)(C)c2ccccc2)c1` [2,4-Bis(1-methyl-1-phenylethyl)phenol], inhibition was half-maximal at 21.7 µM (IC50).

`CC(C)COC(=O)COc1ccc(Cl)cc1Cl` [2,4-D-isobutyl] showed an IC50 of 43.6 µM.

The molecule `O=[N+]([O-])c1cc(C(F)(F)F)c(Cl)c([N+](=O)[O-])c1Cl` [2,4-Dichloro-1,3-dinitro-5-(trifluoromethyl)benzene] had an IC50 of 34.7 µM.

The molecule `O=S(=O)(Oc1ccc(Cl)cc1Cl)c1ccccc1` [2,4-Dichlorophenyl benzenesulfonate] showed an IC50 of 51.8 µM. The IC50 values of the last two molecules are within 1.5-fold of each other.

Turning to `CCc1cc(C(C)(C)C)c(O)c(C(C)(C)C)c1` [2,6-Di-tert-butyl-4-ethylphenol], the IC50 was 19.5 µM.
